From PubChem BioAssay AID179 (DTP/NCI, 2004)
Activity calls are given as the source filed them.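 Rule for the calls: active = compounds giving half or more protection of infected cells from virus-caused growth loss, again on retest; inactive = the rest.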 Where a SMILES comes first, the peptide text is derived from it. [ ]: non-standard residue; d: D form. The star is where a group is joined. ξ: configuration not given here. ξPhe(4-NO2) = NC(Cc1ccc([N+](=O)[O-])cc1)C(=O)O; Boc = CC(C)(C)OC(=O)*; OSu = O=C1CCC(=O)N1O*; OBn = c1ccc(CO*)cc1

Test system: CEM cells HIV-1 protection, formazan growth assay
Assay: NCI AIDS Antiviral Assay
Conditions: for IC50: measured here: growth of uninfected CEM cells
Method in brief: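 Five concentrations of each compound were applied to infected and uninfected human CEM cells. Protection from HIV-1 was judged from growth measured with a soluble formazan assay.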

SMILES | EC50 [µM] | IC50 [µM] | outcome
CC(NC(=O)C(NC(=O)OC(C)(C)C)C(C)C)C(=O)NCC(=O)ON1C(=O)CCC1=O (stereo not drawn) (Boc-Val-Ala-Gly-OSu; configuration not given here) | > 200 | 117 | 
N#Cc1cccc(C[P+](c2ccccc2)(c2ccccc2)c2ccccc2)c1 | > 200 | 135 | 
O=S(=O)(N=S(c1ccc(Cl)cc1)c1ccc(Cl)cc1)c1ccccc1 | > 24.5 | > 24.5 | 
O=C(O)C(O)C(O)C(O)C(O)C(O)C(O)CO (stereo unspecified) |  |  | inactive
CCOC(=O)Cc1csc2[n+]1C(=O)/C(=C/c1cccc(OC)c1O)S2 | > 200 | 174 | 
Cc1cccc(NC(=O)CC2C(=O)Nc3ccccc3S2(=O)=O)c1C (stereo unspecified) | > 5.62 | > 5.62 | 
C#Cc1c(C)c(/C=C/C(C)=C\C(=O)OC)n(C)c1C | > 28.2 | > 28.2 | 
COc1cc(/C=C2/SC(c3ccccc3)N(c3cccc(NC(C)=O)c3)C2=O)cc(OC)c1OC (stereo unspecified) | > 200 | 53.7 | 
CN(C)c1ccc(N=O)c(O)c1 | > 200 | 8.71 | 
NCCSC(C[N+](=O)[O-])c1ccccc1Cl (stereo unspecified) | > 200 | 2.19 | 
COc1ccc(/C(C)=N/NC(N)=S)cc1OC |  |  | inactive
COCCN1C2=CCCCC2=Nc2c(N)nc(N)nc21 |  |  | inactive
COc1cc(C2SC(N)=Nc3c2c(C)nn3C(=O)c2ccc(Cl)cc2)cc(OC)c1OC (stereo unspecified) | > 200 | > 200 | 
CCOC(=O)c1nc2ccc([N+](=O)[O-])cc2c2c1CCO2 | > 63.1 | > 63.1 | 
CC1(C)C(CBr)=[N+]([O-])C(C)(C)N1O | > 200 | 3.72 | 
CCN(CC)CC(C)(C)C(=O)/C=C/c1ccc(/C=C/C(=O)C(C)(C)CN(CC)CC)cc1 |  |  | inactive
CN(C)CCCNC(=O)c1cc(NC(=O)c2cc(NC(=O)c3cc(NC(=O)c4ccnc(C(=O)Nc5cc(C(=O)Nc6cc(C(=O)Nc7cc(C(=O)NCCCN(C)C)n(C)c7)n(C)c6)n(C)c5)c4)cn3C)cn2C)cn1C | > 100 | > 100 | 
Nc1nc(Cl)c2ncn(C3C=CC(O)CC3)c2n1 (stereo unspecified) | > 933 | 52.5 | 
O=[N+]([O-])c1ccc(N/N=C/C(c2ccccc2)c2ccsc2)c([N+](=O)[O-])c1 (stereo unspecified) | > 200 | 19.5 | 
Cc1ccc(C(=O)Nc2ccc(CP(=O)(O)O)cc2)cc1NC(=O)c1cccc(NC(=O)Nc2cccc(C(=O)Nc3cc(C(=O)Nc4ccc(CP(=O)(O)O)cc4)ccc3C)c2)c1 | 16.6 | 50.1 | 
O=C1CSC(c2ccccc2O)N1c1ccc(-n2c(-c3ccccc3)nc3ccccc3c2=O)cc1 (stereo unspecified) | > 200 | 11.2 | 

SMILES | EC50 [µM] | IC50 [µM] | outcome
O=C(CN1CCCCC1)N1CCc2c([nH]c3ccccc23)C1c1cccnc1 (stereo unspecified) | > 26.9 | > 26.9 | 
Cc1cc(Cl)ccc1NC(=O)CC/C(CC(=O)C(C)C)=N\NC(=O)C[n+]1ccccc1 | > 16.2 | > 16.2 | 
Cc1ccccc1Cn1nc2ccccc2cc1=O | > 380 | > 380 | 
Nc1ccc(/C=C\C2(CCl)OCCO2)cc1 | > 100 | > 100 | 
O=C(OCCN1CCOCC1)c1cc2ccccc2oc1=O | > 741 | > 741 | 
COC(=O)[C@@H]1[C@H]2C[C@@H]3c4[nH]c5ccccc5c4CCN3C[C@@H]2CC[C@@H]1O |  |  | inactive
COc1ccc2c(c1)CCC1=CC3(CCC12C)SCCS3 (stereo unspecified) | > 58.9 | 10.2 | 
CCOC(=O)c1ccc(CSc2ccccc2)c([N+](=O)[O-])c1 | > 58.9 | > 58.9 | 
C=CC[C@@]12CC(C=CC13OCCO3)OC(O)[C@@H]2C (stereo partly specified) | > 200 | 145 | 
Cc1c(-c2nc(N)c(C#N)c(N)c2C#N)c(=O)oc2ccccc12 | > 200 | 115 | 
C[N+](C)(C)C1C=CCC2=C1S(=O)(=O)C2 (stereo unspecified) | > 741 | 355 | 
O=C(O)C(O[N+](=O)[O-])c1ccccc1 (stereo unspecified) |  |  | inactive
OCC[N+]12CCCN1CCC2 | > 1050 | > 1050 | 
OCC1OC(n2cnc3c(I)ncnc32)C(O)C1O (stereo unspecified) |  |  | inactive
COc1cc(C(SCc2ccccc2)SCc2ccccc2)ccc1O | > 200 | 34.7 | 
COc1cccc(/C=N/[N-]C(=O)c2ccncc2)c1[O-].[OH3+].[Zn+2] | > 2.95 | > 2.95 | 
O=C(c1ccccc1)c1ccc(COc2ccc(C(c3c(O)c4ccccc4oc3=O)c3c(O)c4ccccc4oc3=O)cc2)cc1 | > 200 | 35.5 | 
NC(=O)c1c(Cl)nc2n1CCS2 | > 200 | > 200 | 
N#C/C(=C\c1cc(O)c(O)c(O)c1)C(=O)NCCCCNC(=O)/C(C#N)=C/c1cc(O)c(O)c(O)c1 | > 200 | 61.7 | 
O=C([CH-]C(=O)c1ccccc1)c1ccccc1.O=C([CH-]C(=O)c1ccccc1)c1ccccc1.[OH-].[OH-].[Ti+4] | > 25.7 | > 25.7 | 
CN(C)c1ccc(/C=C/C=C2\C=Cc3ccccc32)cc1 | > 36.3 | > 36.3 | 

SMILES | EC50 [µM] | IC50 [µM] | outcome
O=C(O/C=C\OC1CCCC1(c1ccccc1)c1ccccc1)c1ccccc1 (stereo unspecified) | > 200 | 3.8 | 
CC(=O)[O-].CC(=O)[O-].O=C(N/N=C/c1cc(Cl)cc(Cl)c1[OH2+])c1ccncc1.[Zn+2] |  |  | inactive
Oc1cc(O)c2c(c1)OC(c1ccc(O)c(O)c1)C(O)C2c1c(O)cc(O)c2c1OC(c1ccc(O)c(O)c1)C(O)C2 (stereo unspecified) | > 200 | 102 | 
CON(C)c1nc(N)c(C#N)c(C#N)c1C#N | > 200 | 35.5 | 
OC(=Nc1cc(C(O)=Nc2cc(C(O)=Nc3cc(C(O)=Nc4ccc(C5=NCCN5)cc4)cc(C4=NCCN4)c3)cc(C3=NCCN3)c2)cc(C2=NCCN2)c1)c1ccc(C(O)=Nc2cc(C(O)=Nc3cc(C(O)=Nc4cc(C(O)=Nc5ccc(C6=NCCN6)cc5)cc(C5=NCCN5)c4)cc(C4=NCCN4)c3)cc(C3=NCCN3)c2)cc1 | 14.5 | > 100 | 
OC1CSc2ccccc2-n2cccc21 (stereo unspecified) | > 138 | 110 | 
S=C(NNC1=NCCCCN1)Nc1ccccc1 | > 200 | 112 | 
CC(C)CCC[C@@H](C)C1CCC2C3CCC4C[C@@](O)(C(c5cc(Cl)c(O)c(C(=O)O)c5)c5cc(Cl)c(O)c(C(=O)O)c5)CC[C@]4(C)C3CC[C@@]21C (stereo partly specified) | > 200 | 25.1 | 
CC1(N)COP(=O)(NCc2ccccc2)OC1 (stereo unspecified) | > 676 | 589 | 
CC(=O)SC(SC(C)=O)SC(C)=O | > 209 | 155 | 
CCCc1cc2c(=O)c(C(=O)OC)c[nH]c2cc1N(CC)CC | > 200 | > 200 | 
COC1=CC(=O)O/C1=C(\OC)C1OC1c1ccccc1 (stereo unspecified) | 5.37 | 97.7 | 
CCOC(=O)CCc1c(C)c2ccc(O)cc2oc1=O | > 200 | > 200 | 
N#Cc1nc(-c2cccnc2)oc1N | > 200 | > 200 | 
O=C(COc1cc(=O)oc2ccccc12)c1ccccc1 | > 200 | 151 | 
c1ccc(CCC2=Nc3ccccc3CO2)cc1 | > 110 | > 110 | 
N#Cc1c(N2CCCC2)ncn(-c2ccccc2)c1=S | > 200 | > 200 | 
c1c[nH]c(-c2ccc(-c3ccc[nH]3)c3nsnc23)c1 | > 200 | > 200 | 
C[C@]12CCC(=O)C=C1CC[C@@H]1C2CC[C@]2(C)NC(=O)C(C#N)CC12 (stereo partly specified) |  |  | inactive
COc1cc(OC)c(/C=C/c2ccc3ccccc3[n+]2[O-])c(OC)c1 | > 56.2 | > 56.2 | 
O=c1c2cc3c(=O)n4c(cc(-c5ccccc5)c5cc(Cl)ccc54)nc3cc2nc2cc(-c3ccccc3)c3cc(Cl)ccc3n12 | > 100 | > 100 | 

SMILES | EC50 [µM] | IC50 [µM] | outcome
O=C(NS(=O)(=O)Nc1ccccc1)OC1CCCC1 | > 200 | > 200 | 
C=CN1C(=O)[C@H](Oc2ccccc2)[C@@H]1c1ccccc1 | > 135 | 63.1 | 
COc1ccc2c(c1)NC(=O)C(O)(Cc1ccccc1)C2=O (stereo unspecified) | > 200 | > 200 | 
C=COCCCOc1ccccc1 | > 200 | > 200 | 
CC1(CC2=C(C(=O)NCCO[Si](C)(C)C(C)(C)C)C3(OCCO3)C2=O)OCCO1 | > 200 | > 200 | 
Cc1ccnc2c1c(=O)c1ccccc1n2C | > 151 | 41.7 | 
C#CCOC(=O)c1ccccc1OC(C)=O.[C-]#[O+].[C-]#[O+].[C-]#[O+].[C-]#[O+].[C-]#[O+].[C-]#[O+].[Co].[Co] | > 200 | 9.33 | 
CCc1cccc(C)c1NC(=O)CCc1nc(=S)[nH][nH]1 | > 617 | > 617 | 
Cc1ncc([N+](=O)[O-])n1CCNC(=O)CCC(=O)NCCCn1ccnc1[N+](=O)[O-] | > 200 | > 200 | 
CC(=O)/C(=C\c1ccccc1O)C(=O)Nc1ccccc1C | > 33.9 | 22.4 | 
COC(=O)C1(C)CCCC2(C)C1CCC13OCC(CC21)C1(C(C)C)OC31 (stereo unspecified) |  |  | inactive
N#CC(C#N)=C1NC(=O)C(c2ccccc2)C(=O)N1 (stereo unspecified) |  |  | inactive
CC(=O)N(C(C)=O)c1c(C)cc(-c2cccs2)oc1=O | > 200 | > 100 | 
COC(=O)c1cccc2c3ccccc3c3ccccc3c12 |  |  | inactive
CC(C)(C)OC(=O)NC(Cc1ccc([N+](=O)[O-])cc1)C(=O)NCC(=O)OCc1ccccc1 (stereo unspecified) (Boc-[ξPhe(4-NO2)]-Gly-OBn) | > 200 | 33.1 | 
Nn1c(-c2ccccc2)nn(C(=O)c2ccccc2)c1=O | > 200 | > 200 | 
O=c1cc2ccccc2nn1Cc1ccccc1Cl | > 251 | > 251 | 
O=c1c2ccccc2oc2cc(C(O)c3ccccc3)ccc12 (stereo unspecified) | > 200 | 97.7 | 
COc1ccc2c(c1OC)C(=O)N1C2=Cc2c(cc3c(c2OC)OCO3)CC1N(C)C (stereo unspecified) | > 200 | 26.9 | 
CC(C)(C)OC(=O)NC(Cc1ccccc1)C(=O)OCN1C(=O)C2C3C=CC(C2C1=O)C1C2C(=O)N(COC(=O)C(Cc4ccccc4)NC(=O)OC(C)(C)C)C(=O)C2C31 (stereo unspecified) | > 100 | 15.5 | 
COc1ccc([C@@]23Oc4cc(OC)cc(OC)c4[C@]2(O)[C@H](O)[C@H](C(=O)N(C)C)[C@H]3c2ccccc2)cc1 | > 200 | 0.0631 | 
